According to US11779567B2, “Method for optimizing 5-hydroxytryptamine function in the brain for therapeutic purposes” (Evecxia Therapeutics, Inc., priority 2021, dated 2023):

Assay: Plasma escitalopram levels in Phase 1 study
Format: in vivo, human
Conditions: for Escitalopram plasma levels, Average Day 21-23 / concentration at 21 day / concentration at 22 day / concentration at 23 day: 20 mg/day oral; for Escitalopram plasma levels, Average Day 21-23 / concentration at 7 day / concentration at 21 day / concentration at 22 day / concentration at 23 day: mean ± SEM; for concentration at 7 day / concentration at 21 day / concentration at 22 day / concentration at 23 day: both sexes, human, plasma; for concentration at 7 day: 10 mg/day, after 10 mg/day oral
Experimental: Study Design. A Phase 1, randomized, double-blind, placebo-controlled, single ascending dose study was performed to evaluate the safety, tolerability and pharmacokinetics (PK) of 5-HTP solution for IV infusion when administered to healthy adults taking a selective serotonin reuptake inhibitor (SSRI), escitalopram, for 3 weeks. Study duration was 37±3 days. The total individual subject participation time was no more than 66 days including screening, dosing, and follow-up phases. The IV infusion duration was 24 h, dosing with 5-HTP solution for IV infusion (see Example 3, above) or placebo (0.9% saline).
Pre-treatment with escitalopram. All subjects received pretreatment with escitalopram for 3 weeks prior to and during the 24 h IV infusion. A supply of escitalopram was provided for self-administration at a dose of 10 mg/day for 7 days. On Day 7 subjects were evaluated for general health and tolerability of escitalopram. Escitalopram compliance confirmation was evaluated by taking a blood draw for escitalopram plasma level measurements and by monitoring pill count using a diary. On Day 7 the subjects received a supply of 20 mg escitalopram tablets and self-administered 20 mg/day until Day 20 when they were admitted to the impatient clinic. Escitalopram was co-administered orally on Day 21-23 by clinical staff. Escitalopram treatment was tapered from 20 mg/day to 10 mg/day after the end of the infusion and continued for 8 days.
Bioanalysis. Plasma samples for 5-HTP analysis were collected and stored at −80° C. Plasma samples for escitalopram analysis were collected and stored at −80° C. Plasma 5-HTP levels and plasma escitalopram levels were measured using standard liquid chromatography with tandem mass spectrometry (LC-MS-MS) methods. For 5-HTP analysis, plasma samples were collected at T=0, 1, 2, 3, 4, 5, 6, 8, 10, 12, 14, 22, 24, 26, 28, 30, 32, 36, and 48 hr. For escitalopram analysis, plasma samples were collected on Day 7, Day 21 (pre-infusion), Day 22 (end of infusion), and Day 23 (24 hr after end of infusion). Plasma escitalopram levels were averaged across days 21-23, during the time-period when subjects were admitted to the clinic and received 5-HTP solution for IV infusion or placebo.
PK analysis of plasma escitalopram. Plasma escitalopram levels across Days 21-23 were averaged for each subject, and statistical analysis by one-way ANOVA for cohort differences executed using GraphPad Prism version 9.4.1.

[1] = oral, Cohort 1 (5-HTP 1 mg/kg, Constant)
[2] = oral, Cohort 2 (5-HTP 3 mg/kg, Constant)
[3] = oral, Cohort 3 (5-HTP 3 mg/kg, Ramped)
[4] = oral, 20 mg/day, Cohort 4 (5-HTP 2 mg/kg, Ramped)
[5] = oral, 20 mg/day, Cohort 5 (5-HTP 1 mg/kg, Ramped)
[6] = po, 20 mg/day, Cohorts 1-5 pooled, placebo infusion instead of 5-HTP, N=10

CN(C)CCC[C@@]1(c2ccc(F)cc2)OCc2cc(C#N)ccc21 [Escitalopram, escitalopram]
Escitalopram plasma levels, Average Day 21-23 (Cohort 1 (5-HTP 1 mg/kg, Constant)): 39.7 ± 8.9 ng/mL | Escitalopram plasma levels, Average Day 21-23 (Cohort 2 (5-HTP 3 mg/kg, Constant)): 25.6 ± 6.5 ng/mL | Escitalopram plasma levels, Average Day 21-23 (Cohort 3 (5-HTP 3 mg/kg, Ramped)): 39.1 ± 4.8 ng/mL | Escitalopram plasma levels, Average Day 21-23 (Cohort 4 (5-HTP 2 mg/kg, Ramped)): 29.2 ± 6.2 ng/mL | Escitalopram plasma levels, Average Day 21-23 (Cohort 5 (5-HTP 1 mg/kg, Ramped)): 24.4 ± 5.0 ng/mL | Escitalopram plasma levels, Average Day 21-23 (Cohorts 1-5 pooled, placebo infusion instead of 5-HTP, N=10): 44.0 ± 8.2 ng/mL | average plasma escitalopram levels, range across treatment groups (Days 21-23, 20 mg/day oral): 24 to 44 ng/mL | concentration at 7 day [1]: 19.3 ± 3.1 ng/mL | concentration at 7 day [2]: 10.1 ± 1.5 ng/mL | concentration at 7 day [3]: 17 ± 2.3 ng/mL | concentration at 7 day (oral, Cohort 4 (5-HTP 2 mg/kg, Ramped)): 14.2 ± 2.5 ng/mL | concentration at 7 day (oral, Cohort 5 (5-HTP 1 mg/kg, Ramped)): 11.4 ± 2.3 ng/mL | concentration at 21 day (oral, 20 mg/day, Cohort 1 (5-HTP 1 mg/kg, Constant)): 39.8 ± 12.3 ng/mL | concentration at 21 day (oral, 20 mg/day, Cohort 2 (5-HTP 3 mg/kg, Constant)): 22.5 ± 10.2 ng/mL | concentration at 21 day (oral, 20 mg/day, Cohort 3 (5-HTP 3 mg/kg, Ramped)): 43.5 ± 4.5 ng/mL | concentration at 21 day [4]: 28.5 ± 5.8 ng/mL | concentration at 22 day [4]: 28.8 ± 6.2 ng/mL | concentration at 23 day [4]: 30.3 ± 7 ng/mL | concentration at 21 day [5]: 21.7 ± 3.4 ng/mL | concentration at 22 day [5]: 22.2 ± 4.7 ng/mL | concentration at 23 day [5]: 29.2 ± 7.5 ng/mL | concentration at 22 day [1]: 37.9 ± 7.3 ng/mL | concentration at 23 day [1]: 41.6 ± 7.6 ng/mL | concentration at 22 day [2]: 24.3 ± 5.7 ng/mL | concentration at 23 day [2]: 30 ± 3.7 ng/mL | concentration at 22 day [3]: 37.3 ± 5.9 ng/mL | concentration at 23 day [3]: 36.6 ± 4.1 ng/mL | concentration at 7 day (po, Cohorts 1-5 pooled, placebo infusion instead of 5-HTP, N=10): 18.3 ± 3.1 ng/mL | concentration at 21 day [6]: 43.3 ± 8.4 ng/mL | concentration at 22 day [6]: 45.2 ± 9.1 ng/mL | concentration at 23 day [6]: 43.5 ± 7.5 ng/mL
